According to PMC6304572, “Simultaneous Evaluation of the Influence of Panax ginseng on the Pharmacokinetics of Three Diester Alkaloids after Oral Administration of Aconiti Lateralis Radix in Rats Using UHPLC/QQQ-MS/MS” (Evidence-based Complementary and Alternative Medicine : eCAM, 2018):
Read-outs that look alike come from different tables or passages of the source.

Columns and labels:
[1] = Pharmacokinetics of three diester alkaloids in rat plasma after oral Aconiti Lateralis Radix extract, with or without 7-day P. ginseng pretreatment; type: in vivo, Sprague-Dawley rats; details: for CL/F / Cmax / Tmax / Vd/F / half-life: Sprague-Dawley, rat, in vivo, po, 1 g/kg; for CL/F / Cmax / Tmax / Vd/F / half-life / AUC(0-t) / AUC(0-∞): oral Aconiti Lateralis Radix extract 1 g/kg on 8th day; for CL/F: read-out: CLz/F (converted); for Cmax: read-out: Cmax; for Tmax: read-out: Tmax; for Vd/F: read-out: Vz/F; for half-life: read-out: t1/2z (converted)
Method: Rats were randomly divided into 4 groups: control group, P. ginseng (low, middle, and high) group. 7 days of oral administration of P. ginseng extract was administered at a dosage of 0.1, 1, 10 g/kg for P. ginseng group (low, middle, and high), respectively, once daily. Distilled water was administered at a dosage of 2 ml/kg for control group, simultaneously. On the 8th day, Aconiti Lateralis Radix extracts (1 g/kg) were orally administered to all groups. 0.5 ml plasma samples were collected in 1.5 ml centrifuge tubes (containing heparin sodium) at 10, 30, 60, 90, 120, 240, 480, 720, 1440, and 2880 min. All plasma samples were centrifuged for 15 min at 4000g. The supernatant was separated to another 1.5 ml centrifuge tubes and stored at -20°C.
Liquid-liquid extraction (ethyl acetate) and protein precipitation (50% acetonitrile plus 50% methanol) methods were compared to determine the best method to prepare the plasma sample. Liquid-liquid extraction method was chosen, due to reproducibly high recovery rates. The details of the extraction are as follows: 10 μL carbamazepine (IS) was added to 90 μL plasma, spiked with 400 μL ethyl acetate and the mixture vortexed for 15 seconds. After centrifugation at 12,000g for 10 min, the supernatant was transferred to another 1.5 mL centrifuge tube and dried under a stream of nitrogen at 37°C. The residue was redissolved in 100 μL 50% acetonitrile and centrifuged at 12,000g for 10 min and filtered through a 0.22 μm Micropore membrane. A 5 μL volume of supernatant was injected into LC-MS system for analysis.
Xevo TQ-S (Waters, USA) was utilized for the analysis of all biological samples. Chromatographic separation was conducted on Waters ACQUITY UPLC HSS T3 1.8 μm column (2.1 mm × 100 mm). Column temperature was 45°C and the flow rate was 0.5ml/min. Room temperature was 20 ± 2°C. Phase A consisted of water and 0.1% formic acid (v/v), and phase B consisted of acetonitrile (ACN) 0.1% formic acid (v/v). Column separation was performed by gradient elution: 0-0.5 min, 10% B; 1-2 min, 90% B; 4 min, 10% B.
Electrospray ionization (ESI) and positive ion V mode were used to determine the samples. The main parameters for mass spectrum were set as follows: capillary voltage: 3.5 kv; sample cone: 60 v; source offset: 50 v; source temperature: 150°C; desolvation temperature: 350°C; cone gas flow: 150 L/h; desolvation gas flow: 650 L/h; injection volume: 5 μL.
The data was acquired and analyzed by XEVO-QT-S (Waters). The pharmacokinetic parameters were analyzed by DAS pharmacokinetic program (Version 2.0). SAS statistical software was used to determine the difference between each group. All data was presented as mean ± SD, and P<0.05 was considered statistically significant.

[2] = Stability of the three alkaloids in rat plasma QC samples (4°C, room temperature, freeze-thaw); type: in vitro ADME; details: for Freeze-thaw Accuracy: freeze-thaw three times; for Room temperature stability (24 h) Accuracy: room temperature (about 25°C)
Method: Plasma from rats without any processing was used to evaluate the detection methods. 0.1, 0.25, 0.5, 1, 2.5, 5, 10 ng/ml were chosen to calculate standards curve. 0.1, 0.4, 4, 8 ng/mL were selected as the QC sample (n = 4) with repeated operations used to calculate accuracy and precision of the detection method. The data was acquired after keeping the samples at either +4°C 24 hours or room temperature (about 25°C) for 24 hours as well as using freeze-thaw methods (three times) to evaluate stability. Recovery of the developed methods was calculated by the following formula: recovery = measured value/ theoretical value × 100%.

[3] = P. ginseng-high (10 g/kg oral, 7 days)
[4] = P. ginseng-low (0.1 g/kg oral, 7 days)
[5] = P. ginseng-middle (1 g/kg oral, 7 days)
[6] = control group (distilled water 7 days)

Compound | CL/F [1, 3] [mL/min/kg] | Cmax [1, 3] [ng/mL] | Tmax [1, 3] [h] | Vd/F [1, 3] [L/kg] | half-life [1, 3] [h] | CL/F [1, 4] [mL/min/kg] | Cmax [1, 4] [ng/mL] | Tmax [1, 4] [h] | Vd/F [1, 4] [L/kg] | half-life [1, 4] [h] | CL/F [1, 5] [mL/min/kg] | Cmax [1, 5] [ng/mL] | Tmax [1, 5] [h] | Vd/F [1, 5] [L/kg] | half-life [1, 5] [h] | CL/F [1, 6] [mL/min/kg] | Cmax [1, 6] [ng/mL] | Tmax [1, 6] [h] | Vd/F [1, 6] [L/kg] | half-life [1, 6] [h] | other results
CCN1C[C@]2(COC)[C@H](O)C[C@H](OC)[C@@]34[C@@H]5C[C@@]6(O)[C@H](OC(=O)c7ccccc7)[C@@H]5[C@@](OC(C)=O)([C@@H]([C@H](OC)[C@H]23)[C@@H]14)[C@@H](O)[C@@H]6OC [Aconitine] | 852 | 11.5 ± 3.49 | 1.33 ± 0.41 | 1550 ± 686 | 26.5 ± 23.3 | 2870 | 5.03 ± 3.02 | 4 ± 3.27 | 2480 ± 945 | 10.1 ± 3.72 | 2830 | 5.79 ± 2.8 | 2.11 ± 2.97 | 1460 ± 190 | 6.14 ± 1.18 | 3760 | 3.88 ± 0.92 | 2.67 ± 2.91 | 3350 ± 1370 | 10.7 ± 4.78 | AUC(0-t) [1, 3]: 162.98 ± 48.50^∗∗ μg/L∗h; AUC(0-∞) [1, 3]: 228.56 ± 100.03^∗∗ μg/L∗h; AUC(0-t) ([1]; P. ginseng-high (10 g/kg oral, 7 days), listed as aconitine): 162.98 ± 48.50 μg/L∗h; AUC(0-t) [1, 4]: 58 ± 13.02 μg/L∗h; AUC(0-∞) [1, 4]: 60.32 ± 12.99 μg/L∗h; AUC(0-t) [1, 5]: 61.05 ± 12.82^∗ μg/L∗h; AUC(0-∞) [1, 5]: 61.49 ± 13.16^∗ μg/L∗h; AUC(0-t) ([1]; P. ginseng-middle (1 g/kg oral, 7 days), listed as aconitine): 61.05 ± 12.82 μg/L∗h; AUC(0-t) [1, 6]: 40.77 ± 9.71 μg/L∗h; AUC(0-∞) [1, 6]: 46.20 ± 9.57 μg/L∗h; 4°C temperature stability (24 h) Accuracy ([2]; QC conc. 0.40 ng/mL): 99.65 ± 2.16%; Freeze-thaw Accuracy ([2]; QC conc. 0.40 ng/mL): 99.71 ± 2.06%; Room temperature stability (24 h) Accuracy ([2]; QC conc. 0.40 ng/mL): 100.49 ± 2.52%; 4°C temperature stability (24 h) Accuracy ([2]; QC conc. 4.00 ng/mL): 98.98 ± 9.99%; Freeze-thaw Accuracy ([2]; QC conc. 4.00 ng/mL): 99.91 ± 6.23%; Room temperature stability (24 h) Accuracy ([2]; QC conc. 4.00 ng/mL): 96.29 ± 3.26%; 4°C temperature stability (24 h) Accuracy ([2]; QC conc. 8.00 ng/mL): 101.57 ± 1.29%; Freeze-thaw Accuracy ([2]; QC conc. 8.00 ng/mL): 100.22 ± 1.87%; Room temperature stability (24 h) Accuracy ([2]; QC conc. 8.00 ng/mL): 97.66 ± 4.54%
COC[C@@]12CC[C@H](OC)[C@]34C(C([C@H](OC)[C@H]13)[C@]1(OC(C)=O)[C@H]3[C@@H](OC(=O)c5ccccc5)[C@](O)(C[C@H]34)[C@@H](OC)[C@@H]1O)N(C)C2 [Hypaconitine] | 2320 | 4.87 ± 1.36 | 1.83 ± 1.29 | 2280 ± 954 | 11.7 ± 4.21 | 2380 | 4.02 ± 2.01 | 3.61 ± 3.47 | 2020 ± 819 | 9.7 ± 3.55 | 2360 | 5.85 ± 2.71 | 2.53 ± 3.01 | 1400 ± 272 | 6.97 ± 1.77 | 3400 | 4.63 ± 1.96 | 2.67 ± 2.91 | 3880 ± 1700 | 14.1 ± 5.41 | Change of Cmax versus control ([1]; all P. ginseng groups compared to control): did not change; AUC(0-t) [1, 3]: 71.75 ± 22.2^∗ μg/L∗h; AUC(0-∞) [1, 3]: 77.26 ± 25.15^∗ μg/L∗h; AUC(0-t) ([1]; P. ginseng-high (10 g/kg oral, 7 days), listed as hypaconitine): 71.75 ± 22.2 μg/L∗h; AUC(0-t) [1, 4]: 65.64 ± 13.14 μg/L∗h; AUC(0-∞) [1, 4]: 70.68 ± 8.89^∗ μg/L∗h; AUC(0-t) [1, 5]: 70.71 ± 7.55^∗ μg/L∗h; AUC(0-∞) [1, 5]: 71.49 ± 8.07^∗ μg/L∗h; AUC(0-t) ([1]; P. ginseng-middle (1 g/kg oral, 7 days), listed as hypaconitine): 70.71 ± 7.55 μg/L∗h; AUC(0-t) [1, 6]: 48.12 ± 24.59 μg/L∗h; AUC(0-∞) [1, 6]: 60.16 ± 28.03 μg/L∗h; 4°C temperature stability (24 h) Accuracy ([2]; QC conc. 0.40 ng/mL): 97.44 ± 2.35%; Freeze-thaw Accuracy ([2]; QC conc. 0.40 ng/mL): 99.71 ± 2.06%; Room temperature stability (24 h) Accuracy ([2]; QC conc. 0.40 ng/mL): 100.49 ± 2.52%; 4°C temperature stability (24 h) Accuracy ([2]; QC conc. 4.00 ng/mL): 104.96 ± 5.49%; Freeze-thaw Accuracy ([2]; QC conc. 4.00 ng/mL): 100.26 ± 6.03%; Room temperature stability (24 h) Accuracy ([2]; QC conc. 4.00 ng/mL): 98.72 ± 4.30%; 4°C temperature stability (24 h) Accuracy ([2]; QC conc. 8.00 ng/mL): 101.13 ± 4.82%; Freeze-thaw Accuracy ([2]; QC conc. 8.00 ng/mL): 102.33 ± 3.19%; Room temperature stability (24 h) Accuracy ([2]; QC conc. 8.00 ng/mL): 100.64 ± 3.60%
